Format in all cases: functional
Test [1] relates to Staphylococcus aureus. Nature of the test: Antibacterial activity against Staphylococcus aureus ATCC 25923 by microbroth dilution method.
In test [2] the test system is Staphylococcus aureus. Put plainly: Antibacterial activity against Staphylococcus aureus ATCC 29213 by microbroth dilution method.
The test system of test [3] is Staphylococcus aureus. Put plainly: Antibacterial activity against drug-resistant Staphylococcus aureus by microbroth dilution method.
Test [4] concerns Staphylococcus aureus. Nature of the test: Antibacterial activity against methicillin-resistant Staphylococcus aureus N315 by microbroth dilution method.
In the next test the test system is Enterococcus faecalis. Put plainly: Antibacterial activity against drug-resistant Enterococcus faecalis by microbroth dilution method.
For test [5], the system named is Candida albicans. Nature of the test: Antifungal activity against Candida albicans ATCC 90023.
Test [6] concerns Candida albicans. Nature of the test: Antifungal activity against drug-resistant Candida albicans.
Another test has as its system Candida parapsilosis. Nature of the test: Antifungal activity against Candida parapsilosis ATCC 22019. Conditions: Lodderomyces parapsilosis.
Another test relates to Candida tropicalis. Nature of the test: Antifungal activity against drug-resistant Candida tropicalis.
Another test deals with Aspergillus fumigatus. Put plainly: Antifungal activity against Aspergillus fumigatus.
The subject of test [7] is Escherichia coli. Nature of the test: Antibacterial activity against Escherichia coli ATCC 25922 by microbroth dilution method.
Test [8] deals with Pseudomonas aeruginosa. Nature of the test: Antibacterial activity against Pseudomonas aeruginosa ATCC 27853 by microbroth dilution method.
Test [9] concerns Escherichia coli. Nature of the test: Antibacterial activity against drug-resistant Escherichia coli by microbroth dilution method.
Test [10] has as its system Pseudomonas aeruginosa. Put plainly: Antibacterial activity against Pseudomonas aeruginosa by microbroth dilution method.
In the next test the test system is Klebsiella pneumoniae. Nature of the test: Antibacterial activity against Klebsiella pneumoniae by microbroth dilution method.
For the next test, the system named is Acinetobacter baumannii. Nature of the test: Antibacterial activity against Acinetobacter baumannii by microbroth dilution method.

SMILES strings stand for the structures. ≈ marks a conversion by molar mass, not a printed value.

As for `CC(=O)Cn1cc(-c2csc(C)n2)c(=O)c2cccc(F)c21`, the MIC against Staphylococcus aureus [1] amounted to 405 µM (≈ 128 µg/mL); against Staphylococcus aureus [2], 810 µM (≈ 256 µg/mL); in the test on Staphylococcus aureus [3] it was 810 µM (≈ 256 µg/mL); in the test with Staphylococcus aureus [4] it was 810 µM (≈ 256 µg/mL); against Enterococcus faecalis, 810 µM (≈ 256 µg/mL); with Candida albicans [5], 810 µM (≈ 256 µg/mL). Besides, the MIC is 810 µM (≈ 256 µg/mL) with Candida albicans [6]; 405 µM (≈ 128 µg/mL) with Candida parapsilosis; 405 µM (≈ 128 µg/mL) against Candida tropicalis; 1620 µM (≈ 512 µg/mL) in the test with Aspergillus fumigatus; 810 µM (≈ 256 µg/mL) in the test with Escherichia coli [7]; 405 µM (≈ 128 µg/mL) against Pseudomonas aeruginosa [8]. For the same compound, the MIC was found to be 810 µM (≈ 256 µg/mL) in the test with Escherichia coli [9], 1620 µM (≈ 512 µg/mL) against Pseudomonas aeruginosa [10], 1620 µM (≈ 512 µg/mL) in the test on Klebsiella pneumoniae and 405 µM (≈ 128 µg/mL) in the test with Acinetobacter baumannii.
For `CC(=O)Cn1cc(-c2csc(C)n2)c(=O)c2cc(F)c(F)cc21`, the MIC came to 766 µM (≈ 256 µg/mL) against Staphylococcus aureus [1]; 766 µM (≈ 256 µg/mL) against Staphylococcus aureus [2]; 766 µM (≈ 256 µg/mL) against Staphylococcus aureus [3]; 1530 µM (≈ 513 µg/mL) in the test on Staphylococcus aureus [4]; 1530 µM (≈ 513 µg/mL) against Enterococcus faecalis; 766 µM (≈ 256 µg/mL) in the test with Candida albicans [5]. Besides, the MIC against Candida albicans [6] is 1530 µM (≈ 513 µg/mL); in the test on Candida parapsilosis, 1530 µM (≈ 513 µg/mL); in the test on Candida tropicalis, 766 µM (≈ 256 µg/mL); against Aspergillus fumigatus, 766 µM (≈ 256 µg/mL); against Escherichia coli [7] it was 1530 µM (≈ 513 µg/mL); in the test on Pseudomonas aeruginosa [8], 1530 µM (≈ 513 µg/mL). Further, the MIC in the test with Escherichia coli [9] stood at 1530 µM (≈ 513 µg/mL); against Pseudomonas aeruginosa [10] it was 1530 µM (≈ 513 µg/mL); with Klebsiella pneumoniae, 766 µM (≈ 256 µg/mL); with Acinetobacter baumannii, 1530 µM (≈ 513 µg/mL).
For the compound `CC(=O)Cn1cc(-c2csc(C)n2)c(=O)c2cc(F)c(Cl)cc21`, the MIC worked out at 366 µM (≈ 128 µg/mL) in the test with Staphylococcus aureus [1]; 366 µM (≈ 128 µg/mL) against Staphylococcus aureus [2]; 366 µM (≈ 128 µg/mL) against Staphylococcus aureus [3]; 731 µM (≈ 256 µg/mL) against Staphylococcus aureus [4]; 366 µM (≈ 128 µg/mL) with Enterococcus faecalis; 91 µM (≈ 31.9 µg/mL) against Candida albicans [5]. The MIC against Candida albicans [6] was determined as 366 µM (≈ 128 µg/mL); in the test on Candida parapsilosis it was 366 µM (≈ 128 µg/mL); in the test on Candida tropicalis, 731 µM (≈ 256 µg/mL); in the test with Aspergillus fumigatus it was 731 µM (≈ 256 µg/mL); against Escherichia coli [7] it was 731 µM (≈ 256 µg/mL); against Pseudomonas aeruginosa [8] it was 366 µM (≈ 128 µg/mL). The MIC against Escherichia coli [9], in the test on Pseudomonas aeruginosa [10], against Klebsiella pneumoniae and with Acinetobacter baumannii was 731 µM (≈ 256 µg/mL) each time.
For `C/C(Cn1cc(-c2csc(C)n2)c(=O)c2cc(F)c(Cl)cc21)=N\NC(N)=S`, the minimal inhibitory concentration (MIC) against Staphylococcus aureus [1], in the test on Staphylococcus aureus [2], in the test with Staphylococcus aureus [3], in the test on Staphylococcus aureus [4], against Enterococcus faecalis and against Candida albicans [5] was 605 µM (≈ 256 µg/mL) throughout. The MIC against Candida albicans [6] is 605 µM (≈ 256 µg/mL); against Candida parapsilosis, 605 µM (≈ 256 µg/mL); in the test with Candida tropicalis, 303 µM (≈ 128 µg/mL); against Aspergillus fumigatus, 1210 µM (≈ 513 µg/mL); in the test on Escherichia coli [7], 605 µM (≈ 256 µg/mL); against Pseudomonas aeruginosa [8] it was 303 µM (≈ 128 µg/mL). The MIC in the test with Escherichia coli [9], in the test on Pseudomonas aeruginosa [10], against Klebsiella pneumoniae and against Acinetobacter baumannii was 605 µM (≈ 256 µg/mL) each time.
Turning to `OC(Cn1cncn1)(Cn1cncn1)c1ccc(F)cc1F` [FLUCONAZOLE], the MIC with Candida albicans [5] turned out to be 3 µM (≈ 0.919 µg/mL); in the test with Candida albicans [6], 13 µM (≈ 3.98 µg/mL); against Candida parapsilosis, 6 µM (≈ 1.84 µg/mL); in the test with Candida tropicalis it was 25 µM (≈ 7.66 µg/mL); in the test with Aspergillus fumigatus it was 802 µM (≈ 246 µg/mL).
In the case of `CC(=O)Cn1cc(-c2csc(N)n2)c(=O)c2cc(F)c(F)cc21`, the MIC against Staphylococcus aureus [1], against Staphylococcus aureus [2], against Staphylococcus aureus [3], against Staphylococcus aureus [4], against Enterococcus faecalis and against Candida albicans [5] was 382 µM (≈ 128 µg/mL) throughout. Besides, the MIC with Candida albicans [6] worked out at 764 µM (≈ 256 µg/mL); in the test with Candida parapsilosis it was 764 µM (≈ 256 µg/mL); in the test with Candida tropicalis it was 764 µM (≈ 256 µg/mL); in the test with Aspergillus fumigatus, 382 µM (≈ 128 µg/mL); in the test on Escherichia coli [7], 382 µM (≈ 128 µg/mL); against Pseudomonas aeruginosa [8], 382 µM (≈ 128 µg/mL). The minimum inhibitory concentration (MIC) with Escherichia coli [9] is 764 µM (≈ 256 µg/mL); against Pseudomonas aeruginosa [10], 382 µM (≈ 128 µg/mL); against Klebsiella pneumoniae it was 764 µM (≈ 256 µg/mL); with Acinetobacter baumannii it was 382 µM (≈ 128 µg/mL).
Regarding `C/C(Cn1cc(-c2csc(N)n2)c(=O)c2cc(F)c(Cl)cc21)=N\O`, the MIC stood at 44 µM (≈ 16.1 µg/mL) against Staphylococcus aureus [1]; 44 µM (≈ 16.1 µg/mL) in the test on Staphylococcus aureus [2]; 44 µM (≈ 16.1 µg/mL) against Staphylococcus aureus [3]; 350 µM (≈ 128 µg/mL) in the test on Staphylococcus aureus [4]; 350 µM (≈ 128 µg/mL) in the test with Enterococcus faecalis; 44 µM (≈ 16.1 µg/mL) with Candida albicans [5]. For the same compound, the MIC came to 87 µM (≈ 31.9 µg/mL) against Candida albicans [6]; 44 µM (≈ 16.1 µg/mL) against Candida parapsilosis; 699 µM (≈ 256 µg/mL) in the test on Candida tropicalis; 699 µM (≈ 256 µg/mL) in the test on Aspergillus fumigatus; 22 µM (≈ 8.07 µg/mL) in the test with Escherichia coli [7]; 44 µM (≈ 16.1 µg/mL) in the test on Pseudomonas aeruginosa [8]. Also, the MIC with Escherichia coli [9] is 350 µM (≈ 128 µg/mL); in the test on Pseudomonas aeruginosa [10], 87 µM (≈ 31.9 µg/mL); against Klebsiella pneumoniae it was 699 µM (≈ 256 µg/mL); with Acinetobacter baumannii, 350 µM (≈ 128 µg/mL).
`C/C(Cn1cc(-c2csc(C)n2)c(=O)c2cc(F)cc(F)c21)=N\NC(N)=S`: the MIC is 1260 µM (≈ 513 µg/mL) against Staphylococcus aureus [1]; 629 µM (≈ 256 µg/mL) in the test with Staphylococcus aureus [2]; 1260 µM (≈ 513 µg/mL) with Staphylococcus aureus [3]; 1260 µM (≈ 513 µg/mL) against Staphylococcus aureus [4]; 1260 µM (≈ 513 µg/mL) against Enterococcus faecalis; 1260 µM (≈ 513 µg/mL) against Candida albicans [5]. The MIC against Candida albicans [6] was determined as 1260 µM (≈ 513 µg/mL); against Candida parapsilosis it was 157 µM (≈ 64 µg/mL); against Candida tropicalis it was 1260 µM (≈ 513 µg/mL); against Aspergillus fumigatus, 629 µM (≈ 256 µg/mL); against Escherichia coli [7], 1260 µM (≈ 513 µg/mL); with Pseudomonas aeruginosa [8], 629 µM (≈ 256 µg/mL). For the same compound, the MIC in the test with Escherichia coli [9] amounted to 1260 µM (≈ 513 µg/mL); against Pseudomonas aeruginosa [10] it was 629 µM (≈ 256 µg/mL); in the test with Klebsiella pneumoniae, 314 µM (≈ 128 µg/mL); against Acinetobacter baumannii, 629 µM (≈ 256 µg/mL).

Values taken from ChEMBL document CHEMBL5584255, “Synthesis and antibacterial medicinal evaluation of carbothioamido hydrazonyl thiazolylquinolone with multitargeting antimicrobial potential to combat increasingly global resistance” (Eur J Med Chem, 2024).
